Read-outs that look alike come from different tables or passages of the source. Where a SMILES comes first, the peptide text is derived from it.
Experiments:
[1] = biological target: T1, SARS-CoV-2 M^Pro (Severe acute respiratory syndrome coronavirus 2, UniProt P0DTD1); experiment: Determination of IC50 values for SARS-CoV-2 M^Pro (fluorogenic peptide substrate, end-point); assay type: biochemical; conditions: 12.5 nM M^Pro, 20 min preincubation, 30 μM substrate; read-out: M^Pro IC50
[2] = biological target: SARS-CoV-2 PL^Pro (Severe acute respiratory syndrome coronavirus 2, UniProt P0DTD1); experiment: Determination of IC50 values for SARS-CoV-2 PL^Pro (Z-RLRGG-AMC substrate); assay type: biochemical; conditions: 30 nM PL^Pro, 20 min preincubation; read-out: PL^Pro IC50
[3] = biological target: T1, SARS-CoV-2 M^Pro; experiment: Determination of KI values for SARS-CoV-2 M^Pro (initial velocity, competitive inhibition); assay type: biochemical; conditions: competitive inhibition, initial velocity; read-out: M^Pro Ki
[4] = biological target: T1, SARS-CoV-2 M^Pro; experiment: Determination of kinact/KI values for SARS-CoV-2 M^Pro (time- and concentration-dependent inactivation); assay type: biochemical
Procedure: where νo is the initial velocity of uninhibited reaction and νi is the initial velocity in the presence of inhibitor. All measurements were done in triplicate. Determination of kinact/KI values for SARS-CoV-2 M^Pro
Time- and concentration-dependent inactivation assays were done by following a similar protocol as described for Ki determination. M^Pro (12.5 nM final) was treated with the peptide-substrate (30 μM final) and test inhibitor (0-80 μM for D-FF(R/Cit)-(CMK/CMKyne); 0-1.25 mM for SM136-145) at time=0 to initiate inactivation process. The total volume of the assay mixture was 50 μL. Time-dependent increase in fluorescence was monitored at 485 nm with excitation at 340 nm for a period of 20-25 min. The observed rates (kobs) for the peptide cleavage in both the presence and absence of inhibitor were determined by fitting to a single-phase association equation. The resulting kobs values were plotted against the concentrations of inhibitor and linear fits were used to derive the slope that afforded the kinact/KI values. All measurements were done in triplicate.

[5] = biological target: T2, Cathepsin L (Homo sapiens, UniProt P07711); experiment: Cathepsin L inhibition assay kit (Abcam), IC50 and kinact/KI; assay type: biochemical; conditions: for IC50: 20 min pretreatment; for kinact/KI: read-out: Cathepsin L kinact/KI
T2 construct: purchased Abcam ab197012
Procedure: (§1) Determination of IC50 and kinact/KI values for Cathepsins L and B
IC50 and kinact/KI values of the inhibitors were determined using commercially available inhibition assay kits (Abcam) by following the manufacturer's protocol. […] The observed rates (kobs) were determined by fitting to a single-phase association equation. The resulting kobs values were plotted against the concentrations of inhibitor and the data were fit to equation 2 to derive the kinact/KI values,
using GraphPad Prism, where kinact is the maximal rate of inactivation, KI is the concentration of inhibitor that affords half-maximal inactivation, and [I] is the concentration of inhibitor. When kobs with [I] varied linearly, kinact/KI was determined from the slope of the line. All the experiments were performed in triplicate. […] Crystallization of M^Pro in Complex with Inhibitors

[6] = biological target: T3, Cathepsin B (Homo sapiens, UniProt P07858); experiment: Cathepsin B inhibition assay kit (Abcam), IC50; assay type: biochemical; conditions: 20 min pretreatment
T3 construct: purchased Abcam ab185438
Procedure: as §1
IC50 and kinact/KI values of the inhibitors were determined using commercially available inhibition assay kits (Abcam) by following the manufacturer's protocol. For IC50 values, enzymes were pretreated with test inhibitor (0-50 μM) for 20 min prior to adding the fluorogenic substrate, and end-point fluorescence was recorded after 30 min. For the kinact/KI values, enzymes were treated with inhibitor and substrate simultaneously and increase in fluorescence was monitored over 60 min. The observed rates (kobs) were determined by fitting to a single-phase association equation. The resulting kobs values were plotted against the concentrations of inhibitor and the data were fit to equation 2 to derive the kinact/KI values,
using GraphPad Prism, where kinact is the maximal rate of inactivation, KI is the concentration of inhibitor that affords half-maximal inactivation, and [I] is the concentration of inhibitor. When kobs with [I] varied linearly, kinact/KI was determined from the slope of the line. All the experiments were performed in triplicate. All fluorescence measurements were taken at absorption/emission wavelength of 400/505 nm using an EnVision 2105 plate reader. Crystallization of M^Pro in Complex with Inhibitors

[7] = test system: SARS-CoV-2; experiment: microbe, parasite or virus in culture; assay type: cell-based; conditions: A549-hACE2 cells
[8] = test system: A549-hACE2 cells; conditions: Table 2; data from medRxiv preprint; cited from earlier work
[9] = data from medRxiv preprint; cited from earlier work
[10] = test system: CYP3A4/5; conditions: data from medRxiv preprint; cited from earlier work

T2 sequence (P07711 114-333): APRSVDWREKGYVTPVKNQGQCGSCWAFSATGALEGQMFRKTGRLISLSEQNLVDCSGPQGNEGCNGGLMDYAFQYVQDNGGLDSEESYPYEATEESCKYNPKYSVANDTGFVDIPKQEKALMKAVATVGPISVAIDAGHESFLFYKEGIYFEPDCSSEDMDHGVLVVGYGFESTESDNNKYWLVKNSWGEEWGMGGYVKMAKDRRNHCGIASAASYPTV

SMILES | IC50 [1] [µM] | IC50 [2] [µM] | Ki [3] [µM] | kinact/KI ([4]; read-out: M^Pro kinact/KI) [M⁻¹ s⁻¹] | IC50 [6] [µM] | also measured
N=C(N)NCCC[C@H](NC(=O)[C@H](Cc1ccccc1)NC(=O)[C@H](N)Cc1ccccc1)C(=O)CCl [D-FFR-CMK] (HELM PEPTIDE1{[dF].F.R.[ClC[*:1]]}$$$$V2.0) | 0.1 | 5 | – | – | – | –
CCOC(=O)C=CC(CC1CCNC1=O)NC(=O)C(Cc1ccc(F)cc1)NC(=O)C(Cc1ccccc1)NC(=O)OC(C)(C)C (centres unmarked) [SM136] | 20 | – | 73 | 12.8 | – | –
CCOC(=O)C=CC(CC1CCNC1=O)NC(=O)C(Cc1ccccc1)NC(=O)C(N)Cc1ccc(F)cc1 (centres unmarked) [SM143] | 0.9 | > 50 | 7 | 350 | > 50 | IC50 [5]: 0.073 µM; kinact/KI [5]: 2330 M⁻¹ s⁻¹
C#CCOCCC(=O)NC(Cc1ccccc1)C(=O)NC(Cc1ccccc1)C(=O)NC(C=CC(=O)OCC)CC1CCNC1=O (centres unmarked) [SM145] | 0.8 | > 50 | 5.3 | 400 | > 50 | kinact/KI ([4]; read-out: second-order rate constant for enzyme inactivation (kinact/KI), M^Pro): 400 M⁻¹ s⁻¹; IC50 [5]: 0.2 µM; kinact/KI [5]: 417 M⁻¹ s⁻¹; antiviral activity compared with SM141 and SM142 [7]: significantly lower antiviral activity than SM141 and SM142
CCOC(=O)C=CC(CC1CCNC1=O)NC(=O)C(Cc1ccccc1)NC(=O)C(Cc1ccccc1)NC(=O)OC(C)(C)C (centres unmarked) [SM140] | 2.2 | > 50 | 16 | 150 | > 50 | –
CC(C)(C)[C@H](NC(=O)C(F)(F)F)C(=O)N1C[C@H]2[C@@H]([C@H]1C(=O)N[C@H](C#N)C[C@@H]1CCNC1=O)C2(C)C [nirmatrelvir] | – | – | – | – | – | cytoxcity [8]: >3 µM; Fa × Fg [9]: 95%; CYP3A4/5 metabolism [10]: HIGH
CCOC(=O)C=CC(CC1CCNC1=O)NC(=O)C(Cc1ccc(F)cc1)NC(=O)C(N)Cc1ccc(F)cc1 (centres unmarked) [SM139] | 10 | – | 65 | 25 | – | –
NC(=O)NCCC[C@H](NC(=O)[C@H](Cc1ccccc1)NC(=O)[C@H](N)Cc1ccccc1)C(=O)CCl [D-FFCit-CMK] (HELM PEPTIDE1{[dF].F.[Cit].[ClC[*:1]]}$$$$V2.0) | 0.13 | > 50 | – | – | – | –
CCOC(=O)C=CC(CC1CCNC1=O)NC(=O)C(Cc1ccc(F)cc1)NC(=O)C(N)Cc1ccccc1 (centres unmarked) [SM137] | 10 | – | 50 | 30 | – | –
CCOC(=O)C=CC(CC1CCNC1=O)NC(=O)C(Cc1ccc(F)cc1)NC(=O)C(Cc1ccc(F)cc1)NC(=O)OC(C)(C)C (centres unmarked) [SM138] | – | – | – | 10.8 | – | –
